Laboratory results from PubChem BioAssay AID248 (DTP/NCI, 2004).
Where “and” joins values, the source holds several entries; their conditions need not be identical. Equal values may be shown once. Inconclusive results and toxic doses are left out. Rule as the data show it: active = T/C of 150% or more; inactive = T/C below 125%.

Tested on: L1210 leukemia ip in BDF1 mice, survival T/C
Experiment: NCI In Vivo Anticancer Drug Screen. Data for tumor model L1210 Leukemia (intraperitoneal) in B6D2F1 (BDF1) mice
Details: endpoint: mean survival time, higher = longer survival
In short: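 Value reflects the ratio of survival in compound-treated mice to survival in vehicle-treated controls, with both groups carrying the same transplanted tumor.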

[1] = dose: 100.0 mg/kg/injection, schedule: Q04DX003 (ip), vehicle: Klucel (hydroxypropylcellulose) (HPC)
[2] = dose: 200.0 mg/kg/injection, schedule: Q04DX003 (ip), vehicle: Klucel (hydroxypropylcellulose) (HPC)
[3] = dose: 400.0 mg/kg/injection, schedule: Q04DX003 (ip), vehicle: Klucel (hydroxypropylcellulose) (HPC)
[4] = dose: 15.0 mg/kg/injection, schedule: Q01DX Z (ip), vehicle: carboxymethylcellulose (CMC)
[5] = dose: 30.0 mg/kg/injection, schedule: Q01DX Z (ip), vehicle: carboxymethylcellulose (CMC)
[6] = dose: 120.0 mg/kg/injection, schedule: Q01DX Z (oral), vehicle: carboxymethylcellulose (CMC)
[7] = dose: 240.0 mg/kg/injection, schedule: Q01DX Z (oral), vehicle: carboxymethylcellulose (CMC)
[8] = dose: 480.0 mg/kg/injection, schedule: Q01DX Z (oral), vehicle: carboxymethylcellulose (CMC)
[9] = dose: 75.0 mg/kg/injection, schedule: Q01DX001 (ip), vehicle: saline
[10] = dose: 150.0 mg/kg/injection, schedule: Q01DX001 (ip), vehicle: saline
[11] = dose: 300.0 mg/kg/injection, schedule: Q01DX001 (ip), vehicle: saline

Measured: T/C

Cc1ccc(S(=O)(=O)N(C)c2cc(Cl)c(C#N)c(Cl)c2)cc1
inactive: dose: 100.0 mg/kg/injection, schedule: Q01DX001 (ip), vehicle: Klucel (hydroxypropylcellulose) (HPC) 96 % of control | [1] 102 % of control | dose: 200.0 mg/kg/injection, schedule: Q01DX001 (ip), vehicle: Klucel (hydroxypropylcellulose) (HPC) 96 % of control | [2] 93 % of control and 92 % of control | dose: 400.0 mg/kg/injection, schedule: Q01DX001 (ip), vehicle: Klucel (hydroxypropylcellulose) (HPC) 89 % of control | [3] 97 % of control and 91 % of control

CCCCCCC/C(=N\N=C(N)N)c1ccc(O)cc1
inactive: [4] 93 % of control | dose: 15.0 mg/kg/injection, schedule: Q01DX Z (oral), vehicle: carboxymethylcellulose (CMC) 117 % of control | [5] 87 % of control | dose: 30.0 mg/kg/injection, schedule: Q01DX Z (oral), vehicle: carboxymethylcellulose (CMC) 106 % of control | dose: 60.0 mg/kg/injection, schedule: Q01DX Z (oral), vehicle: carboxymethylcellulose (CMC) 97 % of control and 103 % of control | [6] 112 % of control and 90 % of control | [7] 94 % of control and 95 % of control | [8] 88 % of control and 90 % of control

F[Si](c1ccccc1)(c1ccccc1)c1ccccc1
inactive: dose: 37.5 mg/kg/injection, schedule: Q01DX009 (ip), vehicle: saline 88 % of control | [9] 93 % of control | dose: 75.0 mg/kg/injection, schedule: Q01DX009 (ip), vehicle: saline 95 % of control | [10] 102 % of control | dose: 150.0 mg/kg/injection, schedule: Q01DX009 (ip), vehicle: saline 95 % of control | [11] 93 % of control

CCOC(=O)NC1=C(N2CC2(C)C)C(=O)C(NC(=O)OCC)=C(N2CC2(C)C)C1=O
inactive: dose: 0.93 mg/kg/injection, schedule: Q01DX009 (ip), vehicle: saline 94 % of control and 110 % of control | dose: 1.87 mg/kg/injection, schedule: Q01DX009 (ip), vehicle: saline 100 % of control and 91 % of control | dose: 3.75 mg/kg/injection, schedule: Q01DX009 (ip), vehicle: saline 96 % of control and 102 % of control | dose: 7.5 mg/kg/injection, schedule: Q01DX009 (ip), vehicle: saline 102 % of control and 107 % of control | dose: 15.0 mg/kg/injection, schedule: Q01DX009 (ip), vehicle: saline 96 % of control and 89 % of control | dose: 30.0 mg/kg/injection, schedule: Q01DX009 (ip), vehicle: saline 100 % of control and 102 % of control

CC1C2COCC2CC2OC21 (configuration not stated)
inactive: dose: 50.0 mg/kg/injection, schedule: Q01DX001 (ip), vehicle: saline sonified 124 % of control | dose: 100.0 mg/kg/injection, schedule: Q01DX001 (ip), vehicle: saline sonified 109 % of control | dose: 200.0 mg/kg/injection, schedule: Q01DX001 (ip), vehicle: saline sonified 102 % of control

OC(O)(C(F)(F)F)C(F)(F)F
inactive: dose: 12.5 mg/kg/injection, schedule: Q01DX005 (ip), vehicle: saline 108 % of control | dose: 12.5 mg/kg/injection, schedule: Q01DX009 (ip), vehicle: saline 95 % of control | dose: 25.0 mg/kg/injection, schedule: Q01DX005 (ip), vehicle: saline 108 % of control | dose: 25.0 mg/kg/injection, schedule: Q01DX009 (ip), vehicle: saline 104 % of control | dose: 50.0 mg/kg/injection, schedule: Q01DX005 (ip), vehicle: saline 104 % of control | dose: 50.0 mg/kg/injection, schedule: Q01DX009 (ip), vehicle: saline 92 % of control

CCOC(OCC)/C(C)=N\NC(N)=S
inactive: [4] 98 % of control | [5] 102 % of control | dose: 60.0 mg/kg/injection, schedule: Q01DX Z (ip), vehicle: carboxymethylcellulose (CMC) 96 % of control | dose: 120.0 mg/kg/injection, schedule: Q01DX Z (ip), vehicle: carboxymethylcellulose (CMC) 86 % of control | [6] 95 % of control | [7] 97 % of control | [8] 94 % of control

CC(=O)Nc1ccc(OC(=O)Nc2ccc(C)cc2[N+](=O)[O-])cc1
inactive: [1] 91 % of control | [2] 102 % of control | [3] 106 % of control

CSc1ccccc1NC(=O)c1cccs1
inactive: dose: 100.0 mg/kg/injection, schedule: Q04DX002 (ip), vehicle: Klucel (hydroxypropylcellulose) (HPC) 89 % of control | dose: 200.0 mg/kg/injection, schedule: Q04DX002 (ip), vehicle: Klucel (hydroxypropylcellulose) (HPC) 96 % of control | dose: 400.0 mg/kg/injection, schedule: Q04DX002 (ip), vehicle: Klucel (hydroxypropylcellulose) (HPC) 93 % of control

O=C(CCc1ccncc1)Nc1ccccc1
inactive: [1] 100 % of control | [2] 96 % of control | [3] 100 % of control

c1ccc(C(C(=Nc2ccc(Cc3ccc(N=C(C(c4ccccc4)c4ccccc4)N4CC4)cc3)cc2)N2CC2)c2ccccc2)cc1
inactive: dose: 70.0 mg/kg/injection, schedule: Q01DX009 (ip), vehicle: saline 103 % of control | dose: 140.0 mg/kg/injection, schedule: Q01DX009 (ip), vehicle: saline 104 % of control | dose: 280.0 mg/kg/injection, schedule: Q01DX009 (ip), vehicle: saline 93 % of control

O=c1c2nccnc2[nH]n1-c1ccccc1
inactive: dose: 25.0 mg/kg/injection, schedule: Q04DX003 (ip), vehicle: Klucel (hydroxypropylcellulose) (HPC) 90 % of control | dose: 50.0 mg/kg/injection, schedule: Q04DX003 (ip), vehicle: Klucel (hydroxypropylcellulose) (HPC) 95 % of control

CC(C)(Br)C(=O)C(C)(C)Br
inactive: [9] 93 % of control | dose: 100.0 mg/kg/injection, schedule: Q01DX009 (ip), vehicle: Klucel (hydroxypropylcellulose) (HPC) 103 % of control | [10] 96 % of control | dose: 200.0 mg/kg/injection, schedule: Q01DX009 (ip), vehicle: Klucel (hydroxypropylcellulose) (HPC) 100 % of control | [11] 92 % of control | dose: 400.0 mg/kg/injection, schedule: Q01DX009 (ip), vehicle: Klucel (hydroxypropylcellulose) (HPC) 91 % of control

COc1ccc(NC(=O)N(O)C2(C#N)CCCCC2)cc1
inactive: dose: 100.0 mg/kg/injection, schedule: Q01DX001 (ip), vehicle: carboxymethylcellulose (CMC) 98 % of control | dose: 200.0 mg/kg/injection, schedule: Q01DX001 (ip), vehicle: carboxymethylcellulose (CMC) 94 % of control | dose: 400.0 mg/kg/injection, schedule: Q01DX001 (ip), vehicle: carboxymethylcellulose (CMC) 88 % of control

CCN(CC)CC(O)CNc1ccnc2cc(Cl)ccc12 (configuration not stated)
inactive: dose: 25.0 mg/kg/injection, schedule: Q01DX009 (ip), vehicle: saline with Tween-80 97 % of control | dose: 50.0 mg/kg/injection, schedule: Q01DX009 (ip), vehicle: saline with Tween-80 86 % of control | dose: 100.0 mg/kg/injection, schedule: Q01DX009 (ip), vehicle: saline with Tween-80 97 % of control

BrC1(C2(Br)N(c3ccccc3)CCN2c2ccccc2)N(c2ccccc2)CCN1c1ccccc1
inactive: dose: 7.5 mg/kg/injection, schedule: Q01DX001 (ip), vehicle: saline 105 % of control | dose: 7.5 mg/kg/injection, schedule: Q04DX003 (ip), vehicle: saline 108 % of control | dose: 15.0 mg/kg/injection, schedule: Q01DX001 (ip), vehicle: saline 105 % of control | dose: 15.0 mg/kg/injection, schedule: Q04DX003 (ip), vehicle: saline 106 % of control | dose: 30.0 mg/kg/injection, schedule: Q01DX001 (ip), vehicle: saline 112 % of control | dose: 30.0 mg/kg/injection, schedule: Q04DX003 (ip), vehicle: saline 100 % of control

O=C(OCCOc1ccccc1)c1ccc([N+](=O)[O-])cc1
inactive: dose: 100.0 mg/kg/injection, schedule: Q01DX001 (ip), vehicle: saline 100 % of control | dose: 200.0 mg/kg/injection, schedule: Q01DX001 (ip), vehicle: saline 98 % of control | dose: 400.0 mg/kg/injection, schedule: Q01DX001 (ip), vehicle: saline 116 % of control

CN(C)C1c2cccn2-c2ccccc2S(=O)(=O)C1c1ccccc1[N+](=O)[O-] (configuration not stated)
inactive: [2] 98 % of control | [3] 96 % of control

CCCCCC(CC)C(CC)CO (configuration not stated)
inactive: dose: 15.0 mg/kg/injection, schedule: Q01DX001 (ip), vehicle: carboxymethylcellulose (CMC) 95 % of control | dose: 30.0 mg/kg/injection, schedule: Q01DX001 (ip), vehicle: carboxymethylcellulose (CMC) 96 % of control | dose: 60.0 mg/kg/injection, schedule: Q01DX001 (ip), vehicle: carboxymethylcellulose (CMC) 96 % of control
